Laboratory results from ChEMBL document CHEMBL1129291, “Tyrosine kinase inhibitors. 8. An unusually steep structure-activity relationship for analogues of 4-(3-bromoanilino)-6,7-dimethoxyquinazoline (PD 153035), a potent inhibitor of the epidermal growth factor receptor” (J Med Chem, 1996).

Molecular target: Epidermal growth factor receptor (Homo sapiens, UniProt P00533)
Experiment: Concentration required to inhibit the phosphorylation of a 14-residue fragment of phospholipase C gamma 1 by Epidermal growth factor receptor from A431 cell vesicles

Epidermal growth factor receptor, sequence (P00533 whole entry, the tested form may be a part): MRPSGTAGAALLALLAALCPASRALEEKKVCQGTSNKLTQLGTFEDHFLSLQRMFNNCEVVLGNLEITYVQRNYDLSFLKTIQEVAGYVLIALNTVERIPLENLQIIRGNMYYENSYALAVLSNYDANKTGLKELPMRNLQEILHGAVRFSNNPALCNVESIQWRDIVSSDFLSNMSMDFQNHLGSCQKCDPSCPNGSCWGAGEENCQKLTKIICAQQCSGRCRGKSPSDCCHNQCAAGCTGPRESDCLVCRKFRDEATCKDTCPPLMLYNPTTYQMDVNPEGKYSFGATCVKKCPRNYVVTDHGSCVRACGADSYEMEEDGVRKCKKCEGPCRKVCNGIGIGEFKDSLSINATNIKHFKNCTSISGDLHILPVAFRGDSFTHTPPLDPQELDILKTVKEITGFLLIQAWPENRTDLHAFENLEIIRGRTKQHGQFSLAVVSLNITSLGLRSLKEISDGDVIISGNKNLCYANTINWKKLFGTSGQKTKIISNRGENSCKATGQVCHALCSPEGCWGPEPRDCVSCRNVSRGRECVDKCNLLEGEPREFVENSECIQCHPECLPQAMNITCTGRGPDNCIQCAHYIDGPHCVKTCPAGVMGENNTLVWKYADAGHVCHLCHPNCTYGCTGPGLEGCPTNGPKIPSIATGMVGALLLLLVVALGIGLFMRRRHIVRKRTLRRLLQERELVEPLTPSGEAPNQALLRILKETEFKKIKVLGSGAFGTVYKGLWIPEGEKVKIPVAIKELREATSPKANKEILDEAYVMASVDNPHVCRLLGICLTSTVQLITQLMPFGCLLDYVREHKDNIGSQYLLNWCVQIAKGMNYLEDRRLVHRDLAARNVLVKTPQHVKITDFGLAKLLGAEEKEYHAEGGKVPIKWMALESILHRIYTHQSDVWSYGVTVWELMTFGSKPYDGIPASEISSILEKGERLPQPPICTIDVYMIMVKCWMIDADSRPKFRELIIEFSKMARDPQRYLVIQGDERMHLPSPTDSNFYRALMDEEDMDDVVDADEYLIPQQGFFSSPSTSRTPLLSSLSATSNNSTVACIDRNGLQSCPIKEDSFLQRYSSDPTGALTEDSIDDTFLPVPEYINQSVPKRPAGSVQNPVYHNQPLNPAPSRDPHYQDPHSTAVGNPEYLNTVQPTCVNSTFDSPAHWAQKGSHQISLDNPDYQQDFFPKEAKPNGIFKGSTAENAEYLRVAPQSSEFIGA

With `COc1cc2nc(C)nc(Nc3cccc(Br)c3)c2cc1OC` as the compound, how does the IC50 read?
The IC50 was over 10000 nM.

With `COc1cc2ncnc(Nc3cccc(C(F)(F)F)c3)c2cc1OC` as the compound, how does the IC50 read?
Its IC50 is 0.24 nM.

Which IC50 does the source give for `COc1cc2ncnc(Nc3cccc(Br)c3)c2c(OC)c1OC` here?
Its IC50 is 0.67 nM.

With `CCCCOc1cc2ncnc(Nc3cccc(Br)c3)c2cc1OCCCC` as the compound, how does the IC50 read?
The IC50 was 105 nM.

Which IC50 does the source give for `O=[N+]([O-])c1ccc2ncnc(Nc3cccc(C(F)(F)F)c3)c2c1` here?
Its IC50 is over 10000 nM.

For `COc1cc2ncnc(Nc3ccc(Br)c(Br)c3)c2cc1OC`, which IC50 is on record?
The IC50 was 0.072 nM.

For `COc1cc2ncnc(Nc3ccc(Br)cc3)c2cc1OC`, which IC50 is on record?
Its IC50 is 0.96 nM.

How did the IC50 turn out when `Nc1ccc2ncnc(Nc3cccc(C(F)(F)F)c3)c2c1` was run?
The IC50 was 574 nM.

For `O=[N+]([O-])c1ccc2ncnc(Nc3ccccc3)c2c1`, which IC50 is on record?
Its IC50 is 5000 nM.

With `COc1ccc2ncnc(Nc3ccccc3)c2c1` as the compound, how does the IC50 read?
The IC50 was 55 nM.

For `Nc1ccc2c(Nc3cccc(Cl)c3)ncnc2c1`, which IC50 is on record?
Its IC50 is 0.25 nM.

For `CCOc1cc2ncnc(Nc3cccc(Br)c3)c2cc1OCC`, which IC50 is on record?
The IC50 was 0.006 nM.

Which IC50 does the source give for `CCCOc1cc2ncnc(Nc3cccc(Br)c3)c2cc1OCCC` here?
The IC50 was 0.17 nM.

Which IC50 does the source give for `COc1cc2c(Nc3cccc(Br)c3)ncnc2c(OC)c1OC` here?
The IC50 was over 10000 nM.

How did the IC50 turn out when `CNc1ccc2ncnc(Nc3cccc(Br)c3)c2c1` was run?
Its IC50 is 4 nM.

With `CN(C)c1ccc2ncnc(Nc3cccc(Br)c3)c2c1` as the compound, how does the IC50 read?
The IC50 was 84 nM.

`COc1ccc2ncnc(Nc3cccc(Br)c3)c2c1` was tested. Which IC50 did it give?
The IC50 was 30 nM.

With `Nc1cc2c(Nc3cccc(Br)c3)ncnc2cc1Cl` as the compound, how does the IC50 read?
The IC50 was 6.5 nM.

With `COc1cc2ncnc(Nc3cccc(Br)c3)c2cc1[N+](=O)[O-]` as the compound, how does the IC50 read?
Its IC50 is 15 nM.

Which IC50 does the source give for `O=[N+]([O-])c1cc2c(Nc3cccc(Br)c3)ncnc2cc1Cl` here?
The IC50 was 25 nM.

`Nc1ccc2ncnc(Nc3ccccc3)c2c1` was tested. Which IC50 did it give?
Its IC50 is 770 nM.

For `CN(C)c1ccc2c(Nc3cccc(Br)c3)ncnc2c1`, which IC50 is on record?
The IC50 was 11 nM.

Which IC50 does the source give for `O=[N+]([O-])c1ccc2c(Nc3ccccc3)ncnc2c1` here?
The IC50 was 12000 nM.

With `Nc1ccc2c(Nc3cccc(I)c3)ncnc2c1` as the compound, how does the IC50 read?
The IC50 was 0.35 nM.

`COc1cc2ncnc(Nc3ccccc3Br)c2cc1OC` was tested. Which IC50 did it give?
Its IC50 is 128 nM.

How did the IC50 turn out when `COc1ccc2c(Nc3ccccc3)ncnc2c1` was run?
Its IC50 is 120 nM.

With `COc1cc2ncnc(Nc3cc(Br)cc(Br)c3)c2cc1OC` as the compound, how does the IC50 read?
Its IC50 is 113 nM.

How did the IC50 turn out when `CNc1cc2ncnc(Nc3cccc(Br)c3)c2cc1[N+](=O)[O-]` was run?
The IC50 was 68 nM.

For `CNc1cc2ncnc(Nc3cccc(Br)c3)c2cc1N`, which IC50 is on record?
Its IC50 is 0.69 nM.

`Fc1cccc(Nc2ncnc3ccccc23)c1` was tested. Which IC50 did it give?
The IC50 was 56 nM.

`Brc1cccc(Nc2ncnc3cc4c(cc23)OCO4)c1` was tested. Which IC50 did it give?
The IC50 was 15 nM.

`O=[N+]([O-])c1ccc2c(Nc3cccc(I)c3)ncnc2c1` was tested. Which IC50 did it give?
The IC50 was 540 nM.

`COc1cc2nc(N)nc(Nc3cccc(Br)c3)c2cc1OC` was tested. Which IC50 did it give?
The IC50 was 463 nM.

`Oc1ccc2c(Nc3cccc(Br)c3)ncnc2c1` was tested. Which IC50 did it give?
Its IC50 is 4.7 nM.

With `COc1ccc2c(Nc3cccc(Br)c3)ncnc2c1OC` as the compound, how does the IC50 read?
Its IC50 is over 10000 nM.

Which IC50 does the source give for `CC(=O)Nc1ccc2c(Nc3cccc(Br)c3)ncnc2c1` here?
Its IC50 is 40 nM.

Which IC50 does the source give for `CN(C)c1cc2ncnc(Nc3cccc(Br)c3)c2cc1[N+](=O)[O-]` here?
The IC50 was 2000 nM.

For `Nc1cc2ncnc(Nc3cccc(Br)c3)c2cc1[N+](=O)[O-]`, which IC50 is on record?
The IC50 was 53 nM.

How did the IC50 turn out when `O=[N+]([O-])c1ccc2c(Nc3cccc(Cl)c3)ncnc2c1` was run?
The IC50 was 810 nM.

`CC(=O)Nc1cc2ncnc(Nc3cccc(Br)c3)c2cc1[N+](=O)[O-]` was tested. Which IC50 did it give?
Its IC50 is 28 nM.

With `Nc1ccc2c(Nc3cccc(F)c3)ncnc2c1` as the compound, how does the IC50 read?
The IC50 was 2 nM.

How did the IC50 turn out when `COc1cc2ncnc(Nc3ccccc3)c2cc1OC` was run?
The IC50 was 29 nM.

How did the IC50 turn out when `O=[N+]([O-])c1ccc2c(Nc3cccc(C(F)(F)F)c3)ncnc2c1` was run?
The IC50 was over 10000 nM.

`COc1cc2ncnc(Nc3cccc(I)c3)c2cc1OC` was tested. Which IC50 did it give?
The IC50 was 0.89 nM.

How did the IC50 turn out when `CN(C)c1cc2ncnc(Nc3cccc(Br)c3)c2cc1N` was run?
The IC50 was 159 nM.

`COc1ccc2ncnc(Nc3cccc(Br)c3)c2c1OC` was tested. Which IC50 did it give?
The IC50 was 1370 nM.

How did the IC50 turn out when `COc1cc2ncnc(Nc3cccc(Br)c3)c2cc1N` was run?
Its IC50 is 3.8 nM.
